Source: article PMC12040169 (PLOS Biology, 2025)

Experiment: in vitro
Settings: human, hela cells, % viability

**Q.** For `COc1cc(C(=O)Nc2nc(Cc3n[nH]c(=S)n3C)cs2)ccc1C` [CBK296683], which viability at 28.5 h, 10 µM is on record?
**A.** 90.6%

**Q.** Which viability at 28.5 h, 10 µM does the source give for `Cn1c(COc2cccc3cccnc23)nnc1SCC(=O)O` [CBK300505] here?
**A.** 89.4%

**Q.** Which viability at 28.5 h, 10 µM does the source give for `Cc1ccc(C)c(N2CCN(CCCNC(=S)Nc3ccc(Cl)cc3Cl)CC2)c1` [CBK267951] here?
**A.** 99.6%

**Q.** With `COc1ccc(C(NC(=O)C2CC=CCC2C(=O)O)c2ccccc2)cc1` (stereo not drawn) [CBK264264] as the molecule, how does the viability at 28.5 h, 10 µM read?
**A.** 91.6%

**Q.** With `Cc1ccc(NC(=O)CSc2nnc(COc3ccc(Cl)cc3Cl)o2)cc1Cl` [CBK264113] as the molecule, how does the viability at 28.5 h, 10 µM read?
**A.** 90.9%

**Q.** Which viability at 28.5 h, 10 µM does the source give for `Cc1nc2[nH]c(=O)nc(N)c2nc1C` [CBK025658] here?
**A.** 83.3%

**Q.** Which viability at 28.5 h, 10 µM does the source give for `C#CCOC(=O)NC(=O)c1csnn1` [CBK006685] here?
**A.** 114%

**Q.** For `COc1cc(OC)c2c(c1)OC1(CCN(C(=O)C3CCCO3)CC1)CC2=O` (stereo not drawn) [CBK156476], which viability at 28.5 h, 10 µM is on record?
**A.** 93.3%

**Q.** For `CCCCCC/C=C/c1cnc2nc(NC(=O)NCC)ccc2c1` [CBK061880], which viability at 28.5 h, 10 µM is on record?
**A.** 93.3%

**Q.** With `Cc1cc(C)c(S(=O)(=O)NCCN2CCN(S(=O)(=O)c3c(C)cc(C)cc3C)CC2)c(C)c1` [CBK265842] as the molecule, how does the viability at 28.5 h, 10 µM read?
**A.** 96%

**Q.** With `CCCc1n[nH]c(=S)n1CC(=O)Nc1cc(NC(=O)C2CC2)ccc1C` [CBK297740] as the molecule, how does the viability at 28.5 h, 10 µM read?
**A.** 106%

**Q.** For `CC(Sc1ccccn1)C(=O)Nc1ccc(S(N)(=O)=O)cc1` (stereo not drawn) [CBK265579], which viability at 28.5 h, 10 µM is on record?
**A.** 97.1%

**Q.** Which viability at 28.5 h, 10 µM does the source give for `CC1CCC(N2CCN(Cc3ccccn3)CC2)CC1` (stereo not drawn) [CBK263473] here?
**A.** 90.6%

**Q.** With `O=C(NC(=S)N1CCN(CCN2C(=O)c3cccc4cccc(c34)C2=O)CC1)c1ccc2c(c1)OCO2` [CBK263577] as the molecule, how does the viability at 28.5 h, 10 µM read?
**A.** 82.2%

**Q.** For `O=C1NCCNC(=O)C2(C/C=C/COc3ccccc31)CCCNC2` (stereo not drawn) [CBK292171], which viability at 28.5 h, 10 µM is on record?
**A.** 115%

**Q.** Which viability at 28.5 h, 10 µM does the source give for `COc1cccc2cc(C(=O)C3=C(O)C(=O)N(CCN4CCOCC4)C3c3cccc(Cl)c3)oc12` (stereo not drawn) [CBK266599] here?
**A.** 100%

**Q.** With `CCN(CC)C(=O)c1ccc2[nH]ccc2c1` [CBK149072] as the molecule, how does the viability at 28.5 h, 10 µM read?
**A.** 97.1%

**Q.** For `CCOC(=O)c1csc(C2CCCN2C(=O)c2ccsc2)n1` (stereo not drawn) [CBK304125], which viability at 28.5 h, 10 µM is on record?
**A.** 77.5%

**Q.** For `CCOc1ccc2c(c1)cc(C(=O)N(C)CC(F)(F)F)n2C` [CBK281509], which viability at 28.5 h, 10 µM is on record?
**A.** 80.7%

**Q.** Which viability at 28.5 h, 10 µM does the source give for `Cc1cc(CNC(=O)C2(c3ccccc3)CCCC2)no1` [CBK149518] here?
**A.** 103%

**Q.** For `Cc1cc(NC(=O)CN(C)c2ncccc2C#N)no1` [CBK304182], which viability at 28.5 h, 10 µM is on record?
**A.** 77.7%

**Q.** Which viability at 28.5 h, 10 µM does the source give for `O=C(Nc1cccc([N+](=O)[O-])c1)c1ccc2nc(-c3ccccn3)c(-c3ccccn3)nc2c1` [CBK265137] here?
**A.** 101%

**Q.** Which viability at 28.5 h, 10 µM does the source give for `CC(Oc1ccccc1)C(=O)Nc1ccc(C(=O)O)cc1` (stereo not drawn) [CBK287154] here?
**A.** 102%

**Q.** With `O=C(N/N=C\c1ccc(-c2ccc(Cl)c(Cl)c2)o1)C1COc2cc3ccccc3cc2O1` (stereo not drawn) [CBK262834] as the molecule, how does the viability at 28.5 h, 10 µM read?
**A.** 99%

**Q.** For `Cc1ccc2c(c1)c(-c1ccccc1)c(-c1ccccc1)n2CC(O)Cn1cnc(-c2ccccc2)c1-c1ccccc1` (stereo not drawn) [CBK262531], which viability at 28.5 h, 10 µM is on record?
**A.** 72.7%

**Q.** With `COCCNc1nccnc1-c1cccnc1` [CBK037376] as the molecule, how does the viability at 28.5 h, 10 µM read?
**A.** 102%

**Q.** Which viability at 28.5 h, 10 µM does the source give for `O=C(C[C@@H]1CCNC[C@@H]1Cc1cc(CN2CCCCC2)on1)N1CCCCC1` [CBK289153] here?
**A.** 86.8%

**Q.** For `CC(C)c1ccc(NS(=O)(=O)c2csc3ccnc(N4CCNCC4)c23)cc1` [CBK042343C], which viability at 28.5 h, 10 µM is on record?
**A.** 95.8%

**Q.** For `CN(C)CCN(C)C(=O)c1ccc(-c2cc(C(F)(F)F)cc(C(F)(F)F)c2)nc1N(C)C` [CBK106069], which viability at 28.5 h, 10 µM is on record?
**A.** 97%

**Q.** For `CC(NC(=O)OC(C)(C)C)c1nnc(SCC(=O)N(C)C)o1` (stereo not drawn) [CBK269932], which viability at 28.5 h, 10 µM is on record?
**A.** 88.3%

**Q.** With `COCCN(C(=S)Nc1ccc(OC)cc1)C(C)c1cccnc1` (stereo not drawn) [CBK294471] as the molecule, how does the viability at 28.5 h, 10 µM read?
**A.** 83.7%

**Q.** For `COc1ccccc1C1CC(c2ccccc2)=NN1C(=O)CCC(=O)O` (stereo not drawn) [CBK287088], which viability at 28.5 h, 10 µM is on record?
**A.** 83.4%

**Q.** For `CC(C)(O)C#Cc1ccc(C(=O)NC(Cc2c[nH]c3ccccc23)C(=O)O)cc1` (stereo not drawn) [CBK267703], which viability at 28.5 h, 10 µM is on record?
**A.** 96.5%

**Q.** For `O=C(COc1ccccc1)NC(=S)Nc1cc(-c2nc3ncccc3o2)ccc1Cl` [CBK264380], which viability at 28.5 h, 10 µM is on record?
**A.** 89.3%

**Q.** Which viability at 28.5 h, 10 µM does the source give for `CCCOc1ccc(OC(=O)COc2ccccc2)cc1` [CBK160853] here?
**A.** 93.3%

**Q.** Which viability at 28.5 h, 10 µM does the source give for `O=C(O)c1ccc(NS(=O)(=O)c2ccc(Br)c3ccccc23)cc1O` [CBK299772] here?
**A.** 86.5%

**Q.** With `CC1CCc2c(sc(NC(=O)Cn3cnc([N+](=O)[O-])n3)c2C(N)=O)C1` (stereo not drawn) [CBK263064] as the molecule, how does the viability at 28.5 h, 10 µM read?
**A.** 91.3%

**Q.** Which viability at 28.5 h, 10 µM does the source give for `C[C@@H](c1ccccc1)n1c(=O)[nH]c2ncc(-c3cccc4cccnc34)nc21` [CBK064199] here?
**A.** 92%

**Q.** With `CCOC(=O)Cn1ccc2ccnc(-c3cccs3)c21` [CBK285200] as the molecule, how does the viability at 28.5 h, 10 µM read?
**A.** 107%

**Q.** Which viability at 28.5 h, 10 µM does the source give for `CSCc1nnc(SCCC(=O)N2CCN(c3ccc(F)cc3)CC2)o1` [CBK240463] here?
**A.** 93.2%

**Q.** For `O=C(C(Cc1ccccc1)c1ccccc1)N1CCC2(CCN(CCCCOc3ccccc3)C2)C1` (stereo not drawn) [CBK160643], which viability at 28.5 h, 10 µM is on record?
**A.** 101%

**Q.** With `O=C(Nc1sc2c(c1C(=O)N1CCOCC1)CCCCC2)c1cccs1` [CBK307099] as the molecule, how does the viability at 28.5 h, 10 µM read?
**A.** 105%

**Q.** Which viability at 28.5 h, 10 µM does the source give for `Cc1ccc(OCC(=O)O/N=C(\N)Cc2ccc([N+](=O)[O-])cc2)c(C)c1` [CBK263102] here?
**A.** 101%

**Q.** With `CCN(CC)CCNc1c(N)c(=O)oc2ccccc12` [CBK261469] as the molecule, how does the viability at 28.5 h, 10 µM read?
**A.** 91.7%

**Q.** For `C[C@]12CN(Cc3ccccc3)C[C@H]1CNc1ccccc1C(=O)N2` [CBK282932], which viability at 28.5 h, 10 µM is on record?
**A.** 94.1%

**Q.** With `CCC(C)[C@H](NC(=O)N1CCN(C(=O)c2cc3ccccc3[nH]2)CC1)C(=O)O` (stereo partly drawn) [CBK286725] as the molecule, how does the viability at 28.5 h, 10 µM read?
**A.** 91%

**Q.** With `O=C1COc2ccccc2C/C=C/CC2(CCN(C(=O)CCn3ccnc3)CC2)CN1` [CBK292131] as the molecule, how does the viability at 28.5 h, 10 µM read?
**A.** 102%

**Q.** Which viability at 28.5 h, 10 µM does the source give for `c1cnc(N2CCCC2)c(OCc2ccsc2)n1` [CBK115664] here?
**A.** 92.2%

**Q.** For `CC(C)(C)C(=O)NC1(C(F)(F)F)N=C(c2ccccc2)NC1=O` (stereo not drawn) [CBK267475], which viability at 28.5 h, 10 µM is on record?
**A.** 88.7%

**Q.** Which viability at 28.5 h, 10 µM does the source give for `O=C(CN1CCOCC1)Nc1c2c(nc3ccccc13)N(c1ccccc1)CC2` [CBK111136G] here?
**A.** 87.9%

**Q.** With `CN1CCN(C(=O)c2ccc(-c3ccco3)nc2N(C)C)CC1` [CBK106121] as the molecule, how does the viability at 28.5 h, 10 µM read?
**A.** 94.4%

**Q.** Which viability at 28.5 h, 10 µM does the source give for `c1ccc(Oc2cccc(CN3CCC(N4CCN(c5ccccc5)CC4)CC3)c2)cc1` [CBK264662G] here?
**A.** 88%

**Q.** Which viability at 28.5 h, 10 µM does the source give for `C[S+]([O-])CCNC(=O)c1cc(-c2ccc(F)cc2)no1` (stereo not drawn) [CBK283251] here?
**A.** 89.6%

**Q.** With `NC(=O)C(NCc1ccccc1)c1ccc(Cl)cc1` (stereo not drawn) [CBK012748] as the molecule, how does the viability at 28.5 h, 10 µM read?
**A.** 84%

**Q.** With `O=C(NCc1ccccc1OC1CCNC1)c1cnccn1` (stereo not drawn) [CBK029462T] as the molecule, how does the viability at 28.5 h, 10 µM read?
**A.** 101%

**Q.** With `COc1ccccc1-c1cc(Nc2ccc(NS(=O)(=O)c3ccc(C)cc3)cc2)ncn1` [CBK037819] as the molecule, how does the viability at 28.5 h, 10 µM read?
**A.** 113%

**Q.** With `c1ccc2c(c1)OCC(c1nn3c(Cn4cnc5ccccc54)nnc3s1)O2` (stereo not drawn) [CBK268436] as the molecule, how does the viability at 28.5 h, 10 µM read?
**A.** 81.4%

**Q.** With `COc1ccccc1N(CC(=O)Nc1c(C)cccc1C)S(=O)(=O)c1ccc(C)cc1` [CBK264810] as the molecule, how does the viability at 28.5 h, 10 µM read?
**A.** 96.5%

**Q.** For `Clc1ccc(CN2CCN(c3nccnc3OC3CCCCC3)CC2)cc1` [CBK082826T], which viability at 28.5 h, 10 µM is on record?
**A.** 101%

**Q.** Which viability at 28.5 h, 10 µM does the source give for `O=S(=O)(Nc1nnc(Cc2ccc(Cl)cc2)s1)c1ccc(Cl)cc1` [CBK200048] here?
**A.** 90.2%

**Q.** Which viability at 28.5 h, 10 µM does the source give for `COc1cccc(OCC(=O)Nc2ccc(Cl)cc2C(=O)O)c1` [CBK264208] here?
**A.** 105%

**Q.** With `CC(C)(CN)CN(Cc1ccccc1C(F)(F)F)C(=O)NCc1ccc(F)cc1` [CBK002471C] as the molecule, how does the viability at 28.5 h, 10 µM read?
**A.** 87.8%

**Q.** Which viability at 28.5 h, 10 µM does the source give for `COc1cccc(N2C(=O)/C(=C/c3ccc(O)c(O)c3)SC2=S)c1` [CBK263096] here?
**A.** 94.7%
